The source of these data is PubChem BioAssay AID1259408 (Genetic Toxicology Data Bank (GENE-TOX), 2018).

In this data set the test system is GENE-TOX genotoxicity assays, various organisms and cells. As to the kind of experiment: GENE-TOX mutagenicity studies. Conditions: for call: Assay Type: In vivo carcinogenicity studies.
Where [1] appears, read: Species/Cell Type: Human lymphocytes, Assay Type: Sister-chromatid exchange (SCE) in vitro, Assay Code: SCL+D, Dose Response: With dose response, Evaluation Type: Evaluation B (Post-1980).
Setting [2] is: Species/Cell Type: Human, Assay Type: Sister-chromatid exchange (SCE) in vitro, Assay Code: SC1+D, Dose Response: With dose response, Evaluation Type: Evaluation B (Post-1980).
The mark [3] stands for this setting: Species/Cell Type: Syrian hamster embryo (SHE) cells, Assay Type: Cell transformation, clonal assay, Assay Code: CTC+, Evaluation Type: Evaluation A (Pre-1980).
[4] abbreviates: Species/Cell Type: Drosophila melanogaster, Assay Type: Sex-linked recessive lethal gene mutation, Assay Code: SRL+, Evaluation Type: Evaluation A (Pre-1980).
[5] abbreviates: Species/Cell Type: Nonhuman, Assay Code: CCGT, Evaluation Type: Evaluation A (Pre-1980).
[6] abbreviates: Species/Cell Type: Nonhuman, Assay Type: Sister-chromatid exchange (SCE) in vitro, Assay Code: SC2+D, Dose Response: With dose response, Evaluation Type: Evaluation B (Post-1980).
The mark [7] stands for this setting: Species/Cell Type: Salmonella typhimurium (one or more of the five standard strains: TA98, TA100, TA1535, TA1537, and TA1538), Assay Type: Histidine reverse gene mutation, Ames assay, Assay Code: SALT, Evaluation Type: Evaluation A (Pre-1980).
The mark [8] stands for this setting: Species/Cell Type: Salmonella typhimurium (one or more of the five standard strains: TA98, TA100, TA1535, TA1537, and TA1538), Assay Type: Histidine reverse gene mutation, Ames assay, Assay Code: SAL+, Evaluation Type: Evaluation A (Pre-1980).
Setting [9] is: Species/Cell Type: Mammalian polychromatic erythrocytes, Assay Type: Micronucleus test, chromosome aberrations, Assay Code: MNTT, Evaluation Type: Evaluation B (Post-1980).
[10] abbreviates: Species/Cell Type: Rodents, Sex: Male, Assay Type: Dominant lethal test, Assay Code: DLT-, Evaluation Type: Evaluation A (Pre-1980).
The mark [11] stands for this setting: Species/Cell Type: Chinese hamster lung (V79) cells, Assay Type: Forward gene mutation at the HPRT or ouabain locus, Assay Code: V79-, Evaluation Type: Evaluation A (Pre-1980).

The source made the active and inactive calls. How the calls were made is not given here.

As for `C=CCNC(=O)Nc1nc(-c2ccccc2)cs1`, the mutagenic call (Species/Cell Type: Salmonella typhimurium, Assay Type: Forward and reverse gene mutation, host-mediated assay, Assay Code: HMAT, Evaluation Type: Evaluation A (Pre-1980)) was “no conclusion”.
Consider `Cc1c(N)nc(C)c2c1[nH]c1ccccc12`, for which the mutagenic call under setting [1] is “active; positive”; the mutagenic call under setting [2] was “active; positive”; the mutagenic call (Species/Cell Type: Salmonella typhimurium (one or more of the five standard strains: TA98, TA100, TA1535, TA1537, and TA1538), Assay Type: Histidine reverse gene mutation, Ames assay, Assay Code: SAL+*, Activation: With metabolic activation, Evaluation Type: Evaluation A (Pre-1980)) is “active; positive”; the mutagenic call under setting [3] was “active; positive”. In addition, the call (Species/Cell Type: Nonhuman, Assay Code: CCG+, Evaluation Type: Evaluation A (Pre-1980)) is “active; positive”.
As for `O=C1OC2(c3ccc(O)cc3Oc3cc(O)ccc32)c2ccccc21`, where the note is “Species/Cell Type: Bacillus subtilis (H17 vs M45), Assay Type: Rec-assay, spot test, DNA effects (bacterial DNA repair), Assay Code: REWT, Evaluation Type: Evaluation A (Pre-1980)”, the mutagenic call was “no conclusion”.
On to `O=P(N1CC1)(N1CC1)N1CC1`, for which the mutagenic call was “active; positive” under setting [4]; “active; positive” (Species/Cell Type: Drosophila melanogaster, Sex: Male, Assay Type: Heritable translocation test, chromosome aberrations, Assay Code: DHT+, Evaluation Type: Evaluation A (Pre-1980)); “active; positive” (Species/Cell Type: Human lymphocytes or leukocytes, Assay Type: Chromosome aberrations in vitro, Assay Code: CY7+, Evaluation Type: Evaluation A (Pre-1980)); “active; positive” under setting [1]; “active; positive” under setting [2]; “no conclusion” (Species/Cell Type: Mammalian germ cells, Sex: Male, Assay Type: Chromosome aberrations in vivo, Assay Code: CY9T, Evaluation Type: Evaluation A (Pre-1980)). The mutagenic call reads like this: (Species/Cell Type: Mouse, Sex: Male, Assay Type: Heritable translocation test, chromosome aberrations, Assay Code: HTT+, Evaluation Type: Evaluation A (Pre-1980)) “active; positive”; (Species/Cell Type: Neurospora crassa, Assay Type: Forward gene mutation, Assay Code: NEF+, Evaluation Type: Evaluation A (Pre-1980)) “active; positive”; (Species/Cell Type: Nonhuman, Assay Type: Chromosome aberrations in vitro, Assay Code: CY&+, Evaluation Type: Evaluation A (Pre-1980)) “active; positive”; under setting [6], “active; positive”; (Species/Cell Type: Rodents, Sex: Male, Assay Type: Dominant lethal test, Assay Code: DLT+, Evaluation Type: Evaluation A (Pre-1980)) “active; positive”; (Species/Cell Type: Schizosaccharomyces pombe, Assay Type: Reverse gene mutation, Assay Code: YEZ+, Evaluation Type: Evaluation A (Pre-1980)) “active; positive”. Also, under “Species/Cell Type: Vicia faba, Assay Type: Chromosome aberrations, Assay Code: VIC+, Evaluation Type: Evaluation A (Pre-1980)”, the mutagenic call is “active; positive”. Further, the call under setting [5] is listed as “no conclusion”.
On to `CSc1ccc([C@H](O)[C@H](CO)NC(=O)C(Cl)Cl)cc1`, for which the mutagenic call under setting [7] is “no conclusion”.
On to `COc1cc(NNc2ccccc2)ccc1N=O`, for which the mutagenic call under setting [8] is “active; positive”.
Consider `N/C=N/O`, for which, for the setting “Species/Cell Type: Escherichia coli polA (W3119 vs P3478), Assay Type: Rec-assay, DNA effects (bacterial DNA repair), Assay Code: RE1+, Evaluation Type: Evaluation A (Pre-1980)”, the mutagenic call is “active; positive”.
Take `Cc1cc(O)ccc1C1(c2ccc(O)cc2C)OS(=O)(=O)c2ccccc21`: the mutagenic call (Species/Cell Type: Allium cepa, Assay Type: Chromosome aberrations, Assay Code: ALC+D, Dose Response: With dose response, Evaluation Type: Evaluation A (Pre-1980)) was “active; positive”.
Regarding `Cc1c2ccccc2cc2c(F)cc3ccccc3c12`, the mutagenic call (Species/Cell Type: Mouse prostate cells, Assay Type: Cell transformation, Assay Code: CTM+, Evaluation Type: Evaluation A (Pre-1980)) is “active; positive”.
For the molecule `c1ccc2c(c1)ccc1c3ccccc3c(C3CO3)cc21` (stereo not given), the mutagenic call under setting [8] is “active; positive”.
Take `CN(C)C(=S)SC(=S)N(C)C`: the mutagenic call (Species/Cell Type: Mammalian polychromatic erythrocytes, Assay Type: Micronucleus test, chromosome aberrations, Assay Code: MNT+U, Dose Response: Unconfirmed positive response, Evaluation Type: Evaluation B (Post-1980)) was “active; positive”.
In the case of `CCCOc1ccc(CC(=O)NN)cc1CN(CC)CC`, the mutagenic call (Species/Cell Type: Saccharomyces cerevisiae, Assay Type: Reverse gene mutation, Assay Code: YERT, Evaluation Type: Evaluation A (Pre-1980)) is given as “no conclusion”.
In the case of `Cc1c2c(c(C)c3ccccc13)[C@H]1O[C@H]1c1ccccc1-2`, the mutagenic call was “active; positive” under setting [4]; “active; positive” (Species/Cell Type: Mouse prostate cells, Assay Type: Cell transformation, Assay Code: CTM+D, Dose Response: With dose response, Evaluation Type: Evaluation A (Pre-1980)); “active; positive” under setting [8].
For `CO[C@@]12[C@H](CO)C3=C(C(=O)C(C)=C(N)C3=O)N1C[C@@H]1N[C@@H]12`, the mutagenic call is “active; positive” under setting [1], “active; positive” under setting [2] and “active; positive” under setting [6].
With `COc1ccc(CCC(=O)c2c(O)cc(O)cc2O)cc1O`, the mutagenic call under setting [9] is recorded as “no conclusion”.
Turning to `CN1CCN(CC(=O)N/N=C/c2ccc([N+](=O)[O-])o2)CC1`, the mutagenic call is “inactive; negative” (Species/Cell Type: Escherichia coli WP2, Assay Type: Tryptophan reverse gene mutation, Assay Code: WP2-, Evaluation Type: Evaluation A (Pre-1980)); “active; positive” (Species/Cell Type: Mammalian polychromatic erythrocytes, Assay Type: Micronucleus test, chromosome aberrations, Assay Code: MNT+, Evaluation Type: Evaluation A (Pre-1980)); “inactive; negative” under setting [10]; “active; positive” (Species/Cell Type: Saccharomyces cerevisiae, Assay Type: Mitotic recombination or gene conversion, Assay Code: YEC+, Evaluation Type: Evaluation A (Pre-1980)).
In the case of `CC(C)NCC1CCc2cc(CO)c([N+](=O)[O-])cc2N1` (stereo not given), the mutagenic call under setting [10] is “inactive; negative”; the mutagenic call under setting [8] was “active; positive”; the mutagenic call (Species/Cell Type: Salmonella typhimurium, Assay Type: Forward and reverse gene mutation, body fluid assay, Assay Code: BFU+, Evaluation Type: Evaluation A (Pre-1980)) was “active; positive”; the mutagenic call (Species/Cell Type: Salmonella typhimurium, Assay Type: Forward and reverse gene mutation, host-mediated assay, Assay Code: HMA+, Evaluation Type: Evaluation A (Pre-1980)) is “active; positive”.
With `CO`, the mutagenic call runs as follows: under setting [9], “no conclusion”; (Species/Cell Type: Neurospora crassa, Assay Type: Aneuploidy, chromosome aberrations, Assay Code: NEN-, Evaluation Type: Evaluation A (Pre-1980)) “inactive; negative”; (Species/Cell Type: Nonhuman, Assay Type: Sister-chromatid exchange (SCE) in vitro, Assay Code: SC2-, Evaluation Type: Evaluation A (Pre-1980)) “inactive; negative”; (Species/Cell Type: Syrian hamster embryo (SA7/SHE) cells, Assay Type: Cell transformation, viral enhanced, Assay Code: CT7-, Evaluation Type: Evaluation A (Pre-1980)) “inactive; negative”; (Species/Cell Type: Syrian hamster embryo (SHE) cells, Assay Type: Cell transformation, clonal assay, Assay Code: CTC-, Evaluation Type: Evaluation A (Pre-1980)) “inactive; negative”.
In the case of `CC(C)NCC(Cl)c1ccc2ccccc2c1` (stereo not given), where the note is “Species/Cell Type: Mouse, Sex: Male, Assay Type: Sperm morphology, Assay Code: SPI+, Evaluation Type: Evaluation A (Pre-1980)”, the mutagenic call was “active; positive”.
Take `O=[N+]([O-])c1ccc(N2CCN(CCO)CC2)c2c1no[n+]2[O-]`: under setting [8], the mutagenic call was “active; positive”.
`O[C@H]1c2ccccc2-c2cc3ccccc3cc2[C@@H]1O`: the mutagenic call runs as follows: under setting [11], “inactive; negative”; (Species/Cell Type: Mouse prostate cells, Assay Type: Cell transformation, Assay Code: CTM-, Evaluation Type: Evaluation A (Pre-1980)) “inactive; negative”; under setting [6], “active; positive”; under setting [7], “no conclusion”; under setting [3], “active; positive”. Further, under setting [5], the call is “no conclusion”.
In the case of `CN=C1C=CC(=C(c2ccc(N(C)C)cc2)c2ccc(N(C)C)cc2)C=C1`, the mutagenic call runs as follows: (Species/Cell Type: Bacillus subtilis (H17 vs M45), Assay Type: Rec-assay, spot test, DNA effects (bacterial DNA repair), Assay Code: REW+, Evaluation Type: Evaluation A (Pre-1980)) “active; positive”; (Species/Cell Type: Bacillus subtilis (H17 vs M45T), Assay Type: Rec-assay, spot test, DNA effects (bacterial DNA repair), Assay Code: REXT, Evaluation Type: Evaluation A (Pre-1980)) “no conclusion”.
For `c1ccc(N=NNc2ccccc2)cc1`, for the setting “Species/Cell Type: Allium cepa, Assay Type: Chromosome aberrations, Assay Code: ALC+, Evaluation Type: Evaluation A (Pre-1980)”, the mutagenic call was “active; positive”.
On to `Nc1ccc2c(S(=O)(=O)O)cccc2c1S(=O)(=O)O`, for which the mutagenic call under setting [7] was “no conclusion”.
For the molecule `Oc1cc2cccc3ccc4c5ccccc5cc1c4c32`, the mutagenic call runs as follows: under setting [11], “inactive; negative”; under setting [7], “no conclusion”. The call under setting [5] is “no conclusion”.
In the case of `NC(=S)c1ccccc1`, where the note is “Species/Cell Type: Mammalian polychromatic erythrocytes, Assay Type: Micronucleus test, chromosome aberrations, Assay Code: MNT+, Evaluation Type: Evaluation B (Post-1980)”, the mutagenic call was “active; positive”.
